Experimental data from ChEMBL document CHEMBL5230154, “Chemical probe of AHL modulators on quorum sensing in Gram-Negative Bacteria and as antiproliferative agents: A review” (Eur J Med Chem, 2021).
Values belong to the molecule of their own block, whether it stands above or below them.

Assays:
[1] = Antagonist activity against quorum sensing system in Vibrio harveyi BB120 assessed as inhibition of […] incubated for 5 hrs by bioluminescence assay
[2] = Inhibition of quorum sensing system in Pseudomonas aeruginosa PAO1 assessed as inhibition of pyocyanin production at 15 uM incubated for 12 hrs by spectrophotometric assay
[3] = Inhibition of quorum sensing system in Pseudomonas aeruginosa PAO1 assessed as inhibition of rhamnolipid production at 15 uM incubated for 12 hrs by spectrophotometric assay
Pseudomonas aeruginosa [4] = test: Inhibition of biofilm formation in Pseudomonas aeruginosa PAO1 incubated for 12 hrs by crystal violet staining based analysis; assay type: functional
[5] = Inhibition of quorum sensing system in Pseudomonas aeruginosa PAO1 assessed as decrease in lasI expression at 15 uM incubated for 12 hrs by real-time fluorescent quantitative PCR analysis
Escherichia coli [6] = test: Inhibition of Escherichia coli DH5alpha LasR co-expressing LasR beta-galactosidase reporter assessed as inhibition of beta-galactosidase activity at 100 uM incubated for 2 hrs by spectrophotometric assay
[7] = Inhibition of Escherichia coli DH5alpha LasR co-expressing LasR beta-galactosidase reporter assessed as inhibition of beta-galactosidase activity incubated for 2 hrs by spectrophotometric assay
Escherichia coli [8] = test: Antagonist activity against quorum sensing system in Pseudomonas aeruginosa PAO1 assessed as inhibition of 3OC6HSL- induced GFP expression at 50 uM by fluorescence analysis; conditions: filed as antagonist
[9] = biological target: T1, Transcriptional activator protein LasR (Pseudomonas aeruginosa (strain ATCC 15692 / PAO1 / 1C / PRS 101 / LMG12228), UniProt P25084); test: Antagonist activity against LasR-mediated quorum sensing system in Pseudomonas aeruginosa PAO1 by spectrophotometric assay
T1 sequence (P25084 whole entry): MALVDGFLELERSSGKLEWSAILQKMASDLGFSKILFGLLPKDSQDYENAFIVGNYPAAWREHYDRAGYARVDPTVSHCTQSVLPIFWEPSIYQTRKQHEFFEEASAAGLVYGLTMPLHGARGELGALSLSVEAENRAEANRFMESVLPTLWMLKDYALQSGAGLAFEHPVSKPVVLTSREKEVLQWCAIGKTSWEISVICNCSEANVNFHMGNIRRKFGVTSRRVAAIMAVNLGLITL

[10] = Inhibition of quorum sensing system in Chromobacterium violaceum CV026 assessed as inhibition of violacein production incubated for 16 to 18 hrs by spectrophotometric assay
Pseudomonas aeruginosa [11] = test: Inhibition of quorum sensing system in Pseudomonas aeruginosa MH602 expressing PlasB::gfp assessed as inhibition of GFP fluorescence expression at 250 uM incubated for 15 hrs by fluorescence microplate reader analysis
[12] = Agonist activity against RhlR in Escherichia coli expressing JLD271/pJN105R2/pSC11-rhlI using CPRG as substrate by spectrophotometric assay
Pseudomonas aeruginosa [13] = test: Inhibition of quorum sensing system in Pseudomonas aeruginosa MH602 PlasB-gfp(ASV) assessed as inhibition of green fluorescent protein production at 62.5 uM for 20 hrs by fluorescence assay
Pseudomonas aeruginosa [14] = test: Inhibition of quorum sensing system in Pseudomonas aeruginosa MH602 PlasB-gfp(ASV) assessed as inhibition of green fluorescent protein production at 125 uM for 20 hrs by fluorescence assay
Pseudomonas aeruginosa [15] = test: Inhibition of quorum sensing system in Pseudomonas aeruginosa MH602 PlasB-gfp(ASV) assessed as inhibition of green fluorescent protein production at 250 uM for 20 hrs by fluorescence assay
Pseudomonas aeruginosa [16] = test: Inhibition of Pseudomonas aeruginosa MH602 harboring PlasB::gfp(ASV) reporter assessed as decrease in GFP expression at 250 uM incubated for 22 hrs by fluorescence microplate reader analysis
Pseudomonas aeruginosa [17] = test: Inhibition of quorum sensing system in Pseudomonas aeruginosa MH602 PlasB-gfp(ASV) assessed as inhibition of green fluorescent protein production at 62.5 to 250 uM for 20 hrs by fluorescence assay; conditions: dose 62.5-250 µM

Compound: CCCCCc1cn(CC(=O)N[C@H]2CCOC2=O)nn1
- inhibition (Escherichia coli [6]): 55%
- IC50 [7]: 3.2 µM

Compound: O=C(CNc1ccc(C(=O)/C=C/c2ccc(Cl)cc2)cc1)N[C@H]1CCOC1=O
- IC50 [9]: 46.8 µM

Compound: O=C(CCC1CC1)N[C@H]1CCOC1=O
- EC50 [12]: 2.76 µM

Compound: O=C(Nc1ccc(S(=O)(=O)N[C@H]2CCOC2=O)cc1)c1ccccc1C(F)(F)F
- IC50 [10]: 4.91 µM

Compound: O=C1Cn2nncc2CNC(=O)C(=O)c2cc(F)ccc2NC(=O)Cn2nncc2CNC(=O)C(=O)c2cc(F)ccc2N1
- inhibition (Pseudomonas aeruginosa [16]): 46%

Compound: Cc1cc2nc(NC(=O)Cn3cc(-c4ccc(C(F)(F)F)cc4)nn3)[nH]c2cc1C
- inhibition (Pseudomonas aeruginosa [17]): 36.1%

Compound: O=C(Cn1cc(-c2ccc(Br)cc2)nn1)Nc1nc2ccccc2[nH]1
- inhibition (Pseudomonas aeruginosa [17]): 45.7%

Compound: O=C(CNc1ccc(C(=O)/C=C/c2ccc(Br)cc2)cc1)N[C@H]1CCOC1=O
- IC50 [9]: 46.8 µM

Compound: O=C(Cn1cc(C2CCCCC2)nn1)N[C@H]1CCOC1=O
- inhibition (Escherichia coli [6]): 72%
- IC50 [7]: 12.4 µM

Compound: O=C(Cn1cc(-c2ccc(F)cc2)nn1)Nc1nc2ccccc2[nH]1
- inhibition (Pseudomonas aeruginosa [17]): 49%

Compound: CC(C)CCC(=O)N[C@H]1CCOC1=O
- EC50 [12]: 4.89 µM

Compound: CCCCc1cn(CC(=O)N[C@H]2CCOC2=O)nn1
- inhibition (Escherichia coli [6]): 75%
- IC50 [7]: 17.6 µM

Compound: O=C(Cn1cc(C2CC2)nn1)N[C@H]1CCOC1=O
- inhibition (Escherichia coli [6]): 52%

Compound: O=C(Nc1ccc(S(=O)(=O)N[C@H]2CCOC2=O)cc1)c1cccc(Cl)c1
- IC50 [10]: 8.56 µM

Compound: O=C(CNc1ccc(C(=O)/C=C/c2cc(Cl)cc(Cl)c2)cc1)N[C@H]1CCOC1=O
- IC50 [9]: 46.8 µM

Compound: O=C(Cn1cc(-c2ccc(C(F)(F)F)cc2)nn1)Nc1nc2ccccc2[nH]1
- inhibition (Pseudomonas aeruginosa [17]): 57.5%

Compound: CCCCCCN1CC(Cl)=C(Cl)C1=O
- inhibition (Pseudomonas aeruginosa [11]): 68%

Compound: O=C(CNc1ccc(C(=O)/C=C/c2ccc(Br)cc2F)cc1)N[C@H]1CCOC1=O
- IC50 [9]: 26.5 µM

Compound: O=C(Nc1ccc(S(=O)(=O)N[C@H]2CCOC2=O)cc1)c1cccc(F)c1
- IC50 [10]: 7.79 µM

Compound: O=C(Nc1ccc(S(=O)(=O)N[C@H]2CCOC2=O)cc1)c1ccc(Cl)cc1
- IC50 [10]: 15.9 µM

The next lines start with results.

- IC50 [1]: 39 µM
Compound: CCOC(=O)CC(=O)c1ccc(I)cc1

- inhibition [2]: 15.1%
- inhibition [3]: 22.2%
- inhibition [5]: 32.9%
Compound: O=C(CCSc1nc2ccccc2s1)N[C@H]1CCOC1=O
- inhibition (INH) (Pseudomonas aeruginosa [4]): 38%

- inhibition (Escherichia coli [8]): 57.9%
Compound: CCOC(=O)/C=C1\CC(NCc2ccccc2)C(=O)N1Cc1ccccc1 (centres undefined)

- IC50 [10]: 1.64 µM
Compound: O=C(Nc1ccc(S(=O)(=O)N[C@H]2CCOC2=O)cc1)c1ccccc1F

- inhibition (Pseudomonas aeruginosa [11]): 30%
Compound: CCCCNC(=O)c1ccc(N2CC(Cl)=C(Cl)C2=O)cc1

- inhibition (Escherichia coli [6]): 72%
- IC50 [7]: 10.9 µM
Compound: Cc1ccc(-n2cc(CCC(=O)N[C@H]3CCOC3=O)nn2)cc1

- IC50 [1]: 76 µM
Compound: CCOC(=O)CC(=O)c1cccc2ccccc12

- inhibition (Pseudomonas aeruginosa [13]): 25%
- inhibition (Pseudomonas aeruginosa [14]): 34%
- inhibition (Pseudomonas aeruginosa [15]): 42%
Compound: CCCCCCCc1cn(CC(=O)Nc2nc3ccccc3[nH]2)nn1

- IC50 [9]: 67.8 µM
Compound: O=C(CNc1ccc(C(=O)/C=C/c2ccccc2Cl)cc1)N[C@H]1CCOC1=O

- inhibition (Escherichia coli [6]): 89.6%
- IC50 [7]: 15.9 µM
Compound: O=C(Cn1cc(-c2ccccc2)nn1)N[C@H]1CCOC1=O

- IC50 [1]: 81 µM
Compound: CCOC(=O)CC(=O)c1ccc(Br)cc1

- inhibition (Pseudomonas aeruginosa [11]): 30%
Compound: CCCCCCNC(=O)c1ccc(N2CC(Cl)=C(Cl)C2=O)cc1

- IC50 [10]: 49.5 µM
Compound: CCCCC(=O)Nc1ccc(S(=O)(=O)N[C@H]2CCOC2=O)cc1

- inhibition (Escherichia coli [8]): 53.5%
Compound: CCOC(=O)/C=C1\CC(NCc2cccs2)C(=O)N1Cc1cccs1 (centres undefined)

- IC50 [10]: 17.2 µM
Compound: O=C(Nc1ccc(S(=O)(=O)N[C@H]2CCOC2=O)cc1)c1ccccc1

- IC50 [10]: 1.66 µM
Compound: O=C(Nc1ccc(S(=O)(=O)N[C@H]2CCOC2=O)cc1)c1ccccc1Cl

- IC50 [9]: 37.6 µM
Compound: O=C(CNc1ccc(C(=O)/C=C/c2ccccc2Br)cc1)N[C@H]1CCOC1=O

- IC50 [1]: 76 µM
Compound: CCOC(=O)CC(=O)c1ccccc1

- inhibition (Escherichia coli [8]): 56.9%
Compound: CCOC(=O)/C=C1\CC(NCc2ccco2)C(=O)N1Cc1ccco1 (centres undefined)
